Measurements taken from patent US5470873A, “Diabetes prevention and treatment using gamma-pyrones” (University Technologies International, Inc., priority 1994, dated 1995).
Where “and” joins values, the source holds several entries; their conditions need not be identical. Equal values may be shown once. Entries after “also recorded” stand apart in the source; their conditions may differ.

Columns and labels:
[1] = Blood glucose levels in GK rats (NIDDM model), glucose tolerance test; assay type: in vivo
Method: To see whether DPD, alone or in combination with other modalities, had any effect on the control of blood glucose levels, GK rats were treated daily from 4 to 14 weeks of age with one of the following: At 14 weeks of age, glucose tolerance tests were performed by intraperitoneal injection of 2 mg glucose/gm body weight. Blood glucose levels were determined 60 minutes later using methods previously described^64-67. Rats receiving DPD alone were intubated daily with a 1.18 % (w/v) solution of DPD in PBS. At 4 weeks of age, rats received 0.5 ml of the 1.18% solution of DPD. This was increased by 0.1 ml/week so that rats at 14 weeks of age received 1.5 ml of the 1.18% solution of DPD. Control rats received the same volume of PBS only. Rats receiving OSA alone were intubated daily with an aqueous extract of OSA. The extract was prepared by adding 10% dried powdered OSA plant to boiling water, keeping the mixture at the boiling point in a sealed container for 3-4 hours, removing the supernatant, then cooling it for use in intubating the GK rats. This supernatant will be referred to as 10% OSA extract. At 4 weeks of age, rats received 0.5 ml of the 10% OSA extract. This was increased by about 0.15 ml/week so that rats at 14 weeks of age received 2.0 ml of the 10% OSA extract. Control rats received the same volume of PBS. […]

[2] = Blood glucose levels in NOD mice (glucose oxidase method); assay type: in vivo; details: NOD mice
Method: (§1) NOD mice were dosed with maltol to evaluate its effect on the pathogenesis of type I diabetes. Mice received 5 mg maltol/mouse every other day from age 2 weeks until they were 20 weeks old. Maltol extracted from ginseng as described in Example 2 was used for the first 10 weeks, then maltol purchased from Sigma Co., St. Louis, MO was used thereafter. The mice were kept until they were 35 weeks old. Urine glucose was measured at 3-day intervals from 10 to 35 weeks of age. Urinary glucose and ketone levels were determined using Diastix and Ketostix reagent slips (Miles, Ontario, Canada). Individual mice were classified as being diabetic on the basis of positive glycosuria^38. […] In contrast, 78% of age-matched control mice (22 mice) spontaneously developed autoimmune diabetes. At 35 weeks of age, fasting (8 hours of fasting) and non-fasting blood glucose levels were measured. Blood was obtained from the retro-orbital venous plexus of fasting and nonfasting NOD mice. Glucose levels were measured enzymatically by the glucose oxidase method with o-dianisidine dihydrochloride as the reactive dye ^39-41 . The mean nonfasting blood glucose level of 35 ICR mice (nondiabetic control mice; NOD mice were derived from ICR mice) was 149±27 mg/dl. Any non-fasting mouse with a blood glucose level greater than 230 mg/dl (3 SD above the mean) was scored as diabetic. The mean fasting blood glucose level of 38 ICR mice was 137±28 mg/dl. Any fasting mouse with a blood glucose level greater than 221 mg/dl (3 SD above the mean) was scored as diabetic.

[3] = Prevention of clinical diabetes (glycosuria) in NOD mice; assay type: in vivo; details: observed to 35 weeks, incl. 15 weeks after cessation of treatment
Method: as §1

[4] = Pancreatic insulin content (immunoreactive insulin, radioimmunoassay) in NOD mice; assay type: in vivo; details: NOD mice
Method: Insulin was extracted from the pancreas of non-obese diabetic (NOD) mouse by known methods ^33,34. Briefly, deep frozen pancreatic tissue (50% of each pancreas) was placed into phosphate buffered saline (PBS) and then extraction solution A (380 ml absolute alcohol, 20 ml H2 O, 8 ml concentrated HCl and some drops of alcoholic phenol red) was added. This mixture was homogenized with polytron type PT 10-20-[…] in glass tubes (15×125 mm) for 30 seconds in position 5. The homogenized material in the tubes was incubated at 4° C. for 10 hours. At the end of the incubation period, the homogenized material was centrifuged at 800 g for 5 minutes for clarification. The supernatant was saved. The pellet was re-extracted with 1 ml of extraction solution B (356 ml absolute alcohol, 124 ml H2 O and 7.5 ml HCl). The pellet in extraction solution B was incubated for 4 hours at 4° C. and then homogenized with a polytron as described above. The homogenized material was centrifuged at 800 g for 5 minutes. The supernatant was pooled with the supernatant from the first extraction. The pooled supernatant was neutralized with concentrated NH40 H (about 10 μl ) until the phenol red turned to purple. The neutralized supernatant was precipitated at 4° C. and then centrifuged at 800 g for 5 min. The supernatant, which contains insulin, was used for the measurement of insulin by radioimmunoassay. The concentration of immunoreactive insulin (IRI) in the pancreas from DPD-treated and untreated NOD mice was measured by radioimmunoassay techniques ^42-44 using mouse insulin as a standard. Briefly, the extracted samples from NOD mice were mixed with […], and anti-insulin antibody. The mixed materials were incubated for 2 hours at room temperature. At the end of the incubation period, anti-guinea pig IgG raised in sheep was added and the mixture was incubated for 30 minutes at room temperature. At the end of the incubation, the samples were centrifuged at 1500 g for 10 minutes. The supernatant was completely removed. The radioactivity of the pellets was measured. The percent of activity was determined by the following formula: [formula] On the basis of % activity in standards, a standard curve was constructed. The concentration of each unknown sample from maltol-treated or untreated NOD pancreas was read on the basis of the standard curve. […] The maltol-treated mice have insulin levels that are similar to the non-diabetic, untreated animals. About 75% of the maltol-treated mice have insulin levels over 80 μg/g pancreas and about 25% have insulin levels between 55-75 μg/g pancreas.

pancreatic islets = assay: Histologic changes of pancreatic islets (hematoxylin and eosin); assay type: in vivo, NOD mice; design: key to Diabetes: "+" indicates "yes"; "-" indicates "no"
Text: Maltol-treated and untreated NOD mice were sacrificed and 25% of each pancreas was fixed in 6% Formalin. Paraffin-embedded sections were stained with hematoxylin and eosin and examined under an Olympus light microscope ^49. To see whether there are any histological differences between the pancreatic islets of DPD-treated and untreated NOD mice, the pancreatic islets of 35 week old mice were examined with the light microscope after staining with hematoxylin and eosin. […] The rest of their islets were rated as having either severe (22%), moderate (27%), mild (25%) or no (6%) insulitis. […] In addition, there were histopathological changes in their pancreatic islets that were rated as moderate (22% of examined islets), mild (30%) or as having no insulitis (15%).

[5] = individual DPD-treated non-diabetic NOD mice (animal 1-5), 35 weeks

Cc1occc(=O)c1O [DPD, maltol]
Blood Glucose ([1]; DPD 1.18% (w/v) in PBS oral daily, 4 to 14 weeks of age, 60 minutes after i.p. 2 mg glucose/gm, PBS control 389 ± 23): 349 ± 42 mg/dL
Effect on control of blood glucose levels (in words) ([1]; GK rats): some reduction of blood glucose levels
Hyperglycemia / clinical diabetes by blood glucose (in words) [2]: do not exhibit hyperglycemia; also recorded: prevents clinical diabetes
Prevention / recurrence of clinical diabetes (in words) [3]: no recurrence of the disease; also recorded: prevented clinical diabetes completely; also recorded: prevents the onset of clinical diabetes
Pancreatic insulin / protection from beta cell destruction (in words) [4]: prevents depression of pancreatic insulin levels
Diabetes (pancreatic islets; Table 2, individual DPD-treated NOD mice): -
Mild histopathological changes, share of examined islets (pancreatic islets; group of DPD-treated NOD mice): 30%
Moderate histopathological changes, share of examined islets (pancreatic islets; group of DPD-treated NOD mice): 22%
No insulitis, share of examined islets (pancreatic islets; group of DPD-treated NOD mice): 15%
Severe insulitis, share of examined islets (pancreatic islets; group of DPD-treated NOD mice, untreated diabetic 35%): about 19%
Severe beta cell necrosis, share of examined islets (pancreatic islets; group of DPD-treated NOD mice, untreated diabetic 64%): approximately 14%
Beta Cell Necrosis, islets affected / islets examined (pancreatic islets; [5]): 5/31 and 5/32 and 3/28 and 4/32
Beta Cell Necrosis, percent of islets (pancreatic islets; [5]): 16% and 11% and 13%
Intact Islet, islets / islets examined (pancreatic islets; [5]): 4/31 and 5/32 and 4/28
Intact Islet, percent of islets (pancreatic islets; [5]): 19% and 15% and 14% and 13%
Mild Insulitis, islets affected / islets examined (pancreatic islets; [5]): 9/31 and 8/32 and 11/28 and 10/31 and 9/32
Mild Insulitis, percent of islets (pancreatic islets; [5]): 29% and 25% and 39% and 33% and 28%
Moderate Insulitis, islets affected / islets examined (pancreatic islets; [5]): 7/31 and 8/32 and 5/28 and 6/31
Moderate Insulitis, percent of islets (pancreatic islets; [5]): 23% and 25% and 18% and 19%
Severe Insulitis, islets affected / islets examined (pancreatic islets; [5]): 6/31 and 6/32 and 5/28
Severe Insulitis, percent of islets (pancreatic islets; [5]): 19% and 18%
